Results published in patent publication US20020198219A1, “2-pyridinamine compositions and related methods” (priority 2000, published 2002).

Test system: differentiated P19 neurons
Assay: Drug screening using differentiated P19 cell assay (neuroprotection against glutamate/glycine)
Assay type: cell-based, murine
Details: for IC50: dose response 0.005-3 μM, 3 mM glutamate + 1 mM glycine, >1 = no maximum within highest dose (3 μM); for % neuroprotection (cell survival relative to control): screened at 1 micromolar, percentage of control cells surviving after 24 hours
Method: Commercially available chemical libraries (BioFocus PLC, UK) were screened using the methods described herein. The stock concentration of the compounds was about 400 μM in DMSO. The concentration of compounds used in the primary screen was 1 μM. […] Columns 4-11 received compounds at the following final concentrations (μM): 3, 1.2, 0.48, 0.192, 0.077, 0.031, 0.012 and 0.005. Each row contained a different compound for confirmation. Only rows B-G received compounds, and rows A and H remained untreated. Data are expressed as % neuroprotection=((compound-glutamate average)/(U0126-glutamate average)×100).
Only the 2-pyridinamines are the subject of this invention, although limited data for 4-pyrimidinamines are presented as well. “% Inh” indicates the percentage of control cells surviving after 24 hours, and represents the neuroprotective effect of the compounds screened at 1 micromolar concentration. IC50 relate to data from dose response experiments. […] ND refers to compounds not tested in dose-response experiments. […]

Structure (SMILES) | IC50 | % neuroprotection (cell survival relative to control) | IC50 (Mus musculus, Neuron)
Cc1ccc(-c2ccc(Nc3cccc(N(C)C)c3)nc2)cc1C [Cmpd 87] | > 1000 nM | 84% | 
C(=C\c1ccc(Nc2ccc3c(c2)OCCO3)nc1)/c1ccccc1 [Cmpd 88, 2-pyridinamine, N-(2,3-dihydro-1,4-benzodioxin-6-yl)-5-[(E)-2-phenylethenyl]-] |  | 85% | 230 nM
COc1ccc(Nc2ccc(C=Cc3ccccc3)cn2)c(C)c1 [Cmpd 90] |  | 73% | 
COc1ccc(Nc2cccc(-c3ccc4ccccc4c3)n2)cc1 [Cmpd 97] |  | 71% | 
COc1ccc(Nc2cccc(-c3ccc(N(C)C)cc3)n2)cc1 [Cmpd 98] |  | 71% | 
CCn1c2ccccc2c2cc(Nc3cccc(-c4cccc(N)c4)n3)ccc21 [Cmpd 99] | 330 nM | 105% | 
COc1ccc(Nc2cccc(-c3cccc(N)c3)n2)cc1 [Cmpd 100] |  | 79% | 
COc1ccc(Nc2cccc(-c3ccccc3Oc3ccccc3)n2)cc1 [Cmpd 101] |  | 78% | 
COc1ccc(Nc2cccc(-c3ccc(CNC(=O)OC(C)(C)C)cc3)n2)cc1 [Cmpd 102] |  | 103% | 940 nM
COc1ccc(Nc2cccc(-c3ccc(Cl)cc3)n2)cc1 [Cmpd 103] |  | 75% | 
CCn1c2ccccc2c2cc(Nc3cccc(-c4cccc(N(C)C)c4)n3)ccc21 [Cmpd 104, 9H-carbazol-3-amine, N-[6-[3-(dimethylamino)phenyl]-2-pyridinyl]-9-ethyl-] |  | 89% | 90 nM
COc1ccc(Nc2cccc(-c3cccc(N(C)C)c3)n2)cc1 [Cmpd 105] | 400 nM | 98% | 
COc1cc(Nc2cccc(-c3ccc(N4CCOCC4)cc3)n2)cc(OC)c1OC [Cmpd 106] | 660 nM | 84% | 
COc1ncc(-c2cccc(Nc3cc(OC)c(OC)c(OC)c3)n2)c(OC)n1 [Cmpd 107] |  | 71% | 
COc1cc(Nc2cccc(-c3cc4ccccc4o3)n2)cc(OC)c1OC [Cmpd 110] | 140 nM | 91% | 
COc1cc(Nc2cccc(-c3cc(OC)c(OC)c(OC)c3)n2)cc(OC)c1OC [Cmpd 112] | 900 nM | 90% | 
COc1cc(Nc2cccc(-c3cccc(N(C)C)c3)n2)cc(OC)c1OC [Cmpd 113] | 540 nM | 91% | 
CCOc1cccc(-c2cccc(Nc3cc(OC)c(OC)c(OC)c3)n2)c1 [Cmpd 114, 2-pyridinamine, 6-(3-ethoxyphenyl)-N-(3,4,5-trimethoxyphenyl)-] |  | 96% | 140 nM
COc1cc(Nc2cccc(-c3ccc(O)cc3)n2)cc(OC)c1OC [Cmpd 117] |  | 78% | 
COc1cc(Nc2cccc(-c3cccc(OC(F)(F)F)c3)n2)cc(OC)c1OC [Cmpd 118, 2-pyridinamine, 6-[3-(trifluoromethoxy)phenyl]-N-(3,4,5-trimethoxyphenyl)-] |  | 91% | 50 nM
COc1cc(Nc2cccc(-c3ccc4c(c3)OCO4)n2)cc(OC)c1OC [Cmpd 120, 2-pyridinamine, 6-(1,3-benzodioxol-5-yl)-N-(3,4,5-trimethoxyphenyl)-] |  | 97% | 50 nM
COc1cc(Nc2cccc(-c3ccc(-c4ccccc4)cc3)n2)cc(OC)c1OC [Cmpd 121] | 650 nM | 96% | 

Structure (SMILES) | IC50 | % neuroprotection (cell survival relative to control) | IC50 (Mus musculus, Neuron)
COc1cc(Nc2cccc(-c3ccccc3)n2)cc(OC)c1OC [Cmpd 122, 2-pyridinamine, 6-phenyl-N-(3,4,5-trimethoxyphenyl)-] |  | 84% | 7 nM
COc1ccc(Nc2cccc(-c3ccccc3)n2)cc1 [Cmpd 123] |  | 90% | 650 nM
COc1ccc(-c2cccc(Nc3cc(OC)c(OC)c(OC)c3)n2)cc1OC [Cmpd 124, 2-pyridinamine, 6-(3,4-dimethoxyphenyl)-N-(3,4,5-trimethoxyphenyl)-] |  | 86% | 230 nM
COc1cc(Nc2cccc(-c3ccc(C)c(C)c3)n2)cc(OC)c1OC [Cmpd 126, 2-pyridinamine, 6-(3,4-dimethylphenyl)-N-(3,4,5-trimethoxyphenyl)-] |  | 90% | 80 nM
COc1cc(C)c(Nc2cccc(-c3ccc(C)c(C)c3)n2)cc1OC [Cmpd 127, 2-pyridinamine, N-(4,5-dimethoxy-2-methylphenyl)-6-(3,4-dimethylphenyl)] |  | 86% | 190 nM
COc1ccc(Nc2cccc(-c3ccc(C)c(C)c3)n2)cc1 [Cmpd 128] | 1540 nM | 84% | 
CCn1c2ccccc2c2cc(Nc3cccc(-c4ccc(OC)c(OC)c4)n3)ccc21 [Cmpd 129] | 340 nM | 92% | 
COc1ccc(Nc2cccc(-c3ccc(OC)c(OC)c3)n2)cc1 [Cmpd 130] | 850 nM | 96% | 
COc1ccc(Nc2cccc(-c3ccco3)n2)cc1 [Cmpd 131] |  | 95% | 240 nM
CCn1c2ccccc2c2cc(Nc3cccc(-c4ccco4)n3)ccc21 [Cmpd 132] | > 1000 nM | 105% | 
CCn1c2ccccc2c2cc(Nc3cccc(-c4cncc(OC)c4)n3)ccc21 [Cmpd 134] | 1590 nM | 92% | 
COc1cc(Nc2cccc(-c3ccc4ccccc4c3)n2)cc(OC)c1OC [Cmpd 135, 2-pyridinamine, 6-(2-naphthyl)-N-(3,4,5-trimethoxyphenyl)-] |  | 86% | 210 nM
COc1ccc(Nc2cccc(-c3ccc4ccccc4c3)n2)c(C)c1OC [Cmpd 136] |  | 86% | > 1000 nM
COc1cc(Nc2cccc(-c3cc(C(F)(F)F)cc(C(F)(F)F)c3)n2)cc(OC)c1OC [Cmpd 137] | 590 nM | 82% | 
COc1cc(Nc2cccc(-c3ccccc3Oc3ccccc3)n2)cc(OC)c1OC [Cmpd 138, 2-pyridinamine, 6-(2-phenoxyphenyl)-N-(3,4,5-trimethoxyphenyl)-] |  | 90% | 230 nM
CCn1c2ccccc2c2cc(Nc3cccc(-c4ccc5c(c4)OCO5)n3)ccc21 [Cmpd 139] |  | 72% | 
c1ccc(Oc2ccc(Nc3cccc(-c4ccc5c(c4)OCO5)n3)cc2)cc1 [Cmpd 140] |  | 79% | 
COc1cc(Nc2cccc(-c3ccc(Cl)cc3)n2)cc(OC)c1OC [Cmpd 141] |  | 76% | 
COc1cc(Nc2cccc(-c3ccc(F)c(Cl)c3)n2)cc(OC)c1OC [Cmpd 142] |  | 94% | 
COc1cc(Nc2cccc(/C=C/c3ccccc3)n2)cc(OC)c1OC [Cmpd 144, 2-pyridinamine, 6-[(E)-2-phenylethenyl]-N-(3,4,5-trimethoxyphenyl)-] |  | 110% | 30 nM
COc1ccc(Nc2cccc(C=Cc3ccccc3)n2)c(C)c1OC [Cmpd 145] | 280 nM | 96% | 
COc1cc(Nc2cccc(-c3ccc(Cl)c(Cl)c3)n2)cc(OC)c1OC [Cmpd 146] | 320 nM | 99% | 
